Results as given in patent publication US20250161216A1, “CATIONIC LIPID ANALOGUES, COMPOSITIONS AND USES THEREOF” (GUANGZHOU LIDE BIOMEDICINE TECHNOLOGY CO., LTD., priority 2022, published 2025).

Tests used:
C57BL/6 mice [1] = experiment: In vivo expression level of Luciferase-mRNA delivered by intramuscular injection (bioluminescence imaging); settings: mRNA-loaded nanoparticles, compounds of Example 2; intramuscular (leg muscle), 5 μg Luciferase-mRNA, 6 hours
Method: (§1) Luciferase-mRNA was used as an mRNA model; and the cationic lipid analogues of Examples 1-5 were used to prepare drug-loaded nanoparticles according to the method of Example 6.
100 μL of nanoparticles containing 5 μg Luciferase-mRNA or the drug-loaded nanoparticles prepared above were injected into the leg muscles of 6-8 week-old C57BL/6 mice, and 200 μL of 1×PBS solution containing 3 mg D-Luciferin potassium salt was intraperitoneally injected into the mice 6 hours later. After waiting for 10 minutes, an in vivo expression level of the mRNA was evaluated by bioluminescence imaging.

C57BL/6 mice [2] = experiment: In vivo expression level of Luciferase-mRNA delivered by intravenous injection (bioluminescence imaging); settings: mRNA-loaded nanoparticles, intravenous (tail vein), 5 μg Luciferase-mRNA, 6 hours; for Fluorescence intensity of liver: compounds of Example 1; for Bioluminescence intensity / Fluorescence intensity of spleen: compounds of Example 2
Method: as §1
200 μL of nanoparticles containing 5 μg Luciferase-mRNA or the drug-loaded nanoparticles prepared above were injected into tail veins of 6-8 week-old C57BL/6 mice, and 200 μL of 1×PBS solution containing 3 mg D-Luciferin potassium salt was intraperitoneally injected into the mice 6 hours later. After waiting for 10 minutes, an in vivo expression level of the mRNA was evaluated by bioluminescence imaging.

SMILES	Fluorescence intensity of liver (C57BL/6 mice [2])	Fluorescence intensity of spleen (C57BL/6 mice [2])	other results
CCCCC/C=C\C/C=C\CCCCCCCC(=O)N(CCCCCO)C(C(=O)NCCN(C)CCNC(=O)C(C(C)C)N(CCCCCO)C(=O)CCCCCCC/C=C\C/C=C\CCCCC)C(C)C (stereo not drawn) [A1I4R27C18-2]			Local fluorescence intensity (C57BL/6 mice [1]): 1.67E+04
CCCCC/C=C\C/C=C\CCCCCCCC(=O)N(CCCN1CCN(C)CC1)C(CCCCC)C(=O)NCCCCCCCCCCCCCCCCCC (stereo not drawn) [A4I18R9C18-2]	2.55E+03		
CCCCC/C=C\C/C=C\CCCCCCCC(=O)N(CCN1CCCC1)C(CCCCC)C(=O)NCCCCCCCCCCCCCCCCCC (stereo not drawn) [A4I18R10C18-2]	7.89E+05		
CCCCC/C=C\C/C=C\CCCCCCCC(=O)N(CCC1CCCN1C)C(CCCCC)C(=O)NCCCCCCCCCCCCCCCCCC (stereo not drawn) [A4I18R11C18-2]	1.02E+06		
CCCCC/C=C\C/C=C\CCCCCCCC(=O)N(CCCN(C)C)C(C(=O)NCCCCCCCCCCCCCCCCCC)C(C)CCC=C(C)C (stereo not drawn) [A5I18R2C18-2]	8.72E+05		
CCCCCCCC/C=C\CCCCCCCC(=O)N(CCCN(C)C)C(C(=O)NCCN(C)CCNC(=O)C(C1CC1)N(CCCN(C)C)C(=O)CCCCCCC/C=C\CCCCCCCC)C1CC1 (stereo not drawn) [A21I4R2C18-1]			Bioluminescence intensity (C57BL/6 mice [2]): 8.38E+02
CCCCC/C=C\C/C=C\CCCCCCCC(=O)N(CCCN(C)C)C(C(=O)NCCN(C)CCNC(=O)C(C1CC1)N(CCCN(C)C)C(=O)CCCCCCC/C=C\C/C=C\CCCCC)C1CC1 (stereo not drawn) [A21I4R2C18-2]		1.83E+03	
CCCCCCCCCCCCCCCCCC(=O)N(CCCN(C)C)C(C(=O)NCCN(C)CCNC(=O)C(C1CC1)N(CCCN(C)C)C(=O)CCCCCCCCCCCCCCCCC)C1CC1 (stereo not drawn) [A21I4R2C18]		1.04E+03	
CCCCCCCC/C=C\CCCCCCCC(=O)N(CCN1CCCCCC1)C(C(=O)NCCN(C)CCNC(=O)C(C1CC1)N(CCN1CCCCCC1)C(=O)CCCCCCC/C=C\CCCCCCCC)C1CC1 (stereo not drawn) [A21I4R13C18-1]			Bioluminescence intensity (C57BL/6 mice [2]): 9.59E+02
CCCCC/C=C\C/C=C\CCCCCCCC(=O)N(CCN1CCCCCC1)C(C(=O)NCCN(C)CCNC(=O)C(C1CC1)N(CCN1CCCCCC1)C(=O)CCCCCCC/C=C\C/C=C\CCCCC)C1CC1 (stereo not drawn) [A21I4R13C18-2]			Bioluminescence intensity (C57BL/6 mice [2]): 8.67E+02
CCCCCCCCCCCCCCCCCC(=O)N(CCN1CCCCCC1)C(C(=O)NCCN(C)CCNC(=O)C(C1CC1)N(CCN1CCCCCC1)C(=O)CCCCCCCCCCCCCCCCC)C1CC1 (stereo not drawn) [A21I4R13C18]		1.12E+03	
CCCCCCCC/C=C\CCCCCCCC(=O)N(CCC)C(C(=O)NCCN(C)CCNC(=O)C(C1CC1)N(CCC)C(=O)CCCCCCC/C=C\CCCCCCCC)C1CC1 (stereo not drawn) [A21I4R21C18-1]		8.50E+03	
CCCCC/C=C\C/C=C\CCCCCCCC(=O)N(CCC)C(C(=O)NCCN(C)CCNC(=O)C(C1CC1)N(CCC)C(=O)CCCCCCC/C=C\C/C=C\CCCCC)C1CC1 (stereo not drawn) [A21I4R21C18-2]		1.39E+03	
CCCCCCCCCCCCCCCCCC(=O)N(CCC)C(C(=O)NCCN(C)CCNC(=O)C(C1CC1)N(CCC)C(=O)CCCCCCCCCCCCCCCCC)C1CC1 (stereo not drawn) [A21I4R21C18]		5.31E+03	
CCCCCCCC/C=C\CCCCCCCC(=O)N(CCO)C(C(=O)NCCN(C)CCNC(=O)C(C1CC1)N(CCO)C(=O)CCCCCCC/C=C\CCCCCCCC)C1CC1 (stereo not drawn) [A21I4R22C18-1]		1.76E+04	
CCCCC/C=C\C/C=C\CCCCCCCC(=O)N(CCO)C(C(=O)NCCN(C)CCNC(=O)C(C1CC1)N(CCO)C(=O)CCCCCCC/C=C\C/C=C\CCCCC)C1CC1 (stereo not drawn) [A21I4R22C18-2]		1.26E+03	
CCCCCCCC/C=C\CCCCCCCC(=O)N(CCOC)C(C(=O)NCCN(C)CCNC(=O)C(C1CC1)N(CCOC)C(=O)CCCCCCC/C=C\CCCCCCCC)C1CC1 (stereo not drawn) [A21I4R23C18-1]		2.28E+04	
CCCCC/C=C\C/C=C\CCCCCCCC(=O)N(CCOC)C(C(=O)NCCN(C)CCNC(=O)C(C1CC1)N(CCOC)C(=O)CCCCCCC/C=C\C/C=C\CCCCC)C1CC1 (stereo not drawn) [A21I4R23C18-2]		6.97E+04	
CCCCCCCCCCCCCCCCCC(=O)N(CCOC)C(C(=O)NCCN(C)CCNC(=O)C(C1CC1)N(CCOC)C(=O)CCCCCCCCCCCCCCCCC)C1CC1 (stereo not drawn) [A21I4R23C18]		2.65E+04	
CCCCCCCC/C=C\CCCCCCCC(=O)N(CCCN(C)C)C(C(=O)NCCN(C)CCNC(=O)C(C1CCCCC1)N(CCCN(C)C)C(=O)CCCCCCC/C=C\CCCCCCCC)C1CCCCC1 (stereo not drawn) [A23I4R2C18-1]		1.78E+03	
CCCCC/C=C\C/C=C\CCCCCCCC(=O)N(CCCN(C)C)C(C(=O)NCCN(C)CCNC(=O)C(C1CCCCC1)N(CCCN(C)C)C(=O)CCCCCCC/C=C\C/C=C\CCCCC)C1CCCCC1 (stereo not drawn) [A23I4R2C18-2]		2.18E+03	

SMILES	Fluorescence intensity of liver (C57BL/6 mice [2])	Fluorescence intensity of spleen (C57BL/6 mice [2])	other results
CCCCCCCCCCCCCCCCCC(=O)N(CCCN(C)C)C(C(=O)NCCN(C)CCNC(=O)C(C1CCCCC1)N(CCCN(C)C)C(=O)CCCCCCCCCCCCCCCCC)C1CCCCC1 (stereo not drawn) [A23I4R2C18]			Bioluminescence intensity (C57BL/6 mice [2]): 5.71E+02
CCCCCCCC/C=C\CCCCCCCC(=O)N(CCN1CCCCCC1)C(C(=O)NCCN(C)CCNC(=O)C(C1CCCCC1)N(CCN1CCCCCC1)C(=O)CCCCCCC/C=C\CCCCCCCC)C1CCCCC1 (stereo not drawn) [A23I4R13C18-1]			Bioluminescence intensity (C57BL/6 mice [2]): 6.61E+02
CCCCC/C=C\C/C=C\CCCCCCCC(=O)N(CCN1CCCCCC1)C(C(=O)NCCN(C)CCNC(=O)C(C1CCCCC1)N(CCN1CCCCCC1)C(=O)CCCCCCC/C=C\C/C=C\CCCCC)C1CCCCC1 (stereo not drawn) [A23I4R13C18-2]		9.46E+03	
CCCCCCCCCCCCCCCCCC(=O)N(CCN1CCCCCC1)C(C(=O)NCCN(C)CCNC(=O)C(C1CCCCC1)N(CCN1CCCCCC1)C(=O)CCCCCCCCCCCCCCCCC)C1CCCCC1 (stereo not drawn) [A23I4R13C18]			Bioluminescence intensity (C57BL/6 mice [2]): 7.89E+02
CCCCCCCC/C=C\CCCCCCCC(=O)N(CCC)C(C(=O)NCCN(C)CCNC(=O)C(C1CCCCC1)N(CCC)C(=O)CCCCCCC/C=C\CCCCCCCC)C1CCCCC1 (stereo not drawn) [A23I4R21C18-1]		9.63E+04	
CCCCC/C=C\C/C=C\CCCCCCCC(=O)N(CCC)C(C(=O)NCCN(C)CCNC(=O)C(C1CCCCC1)N(CCC)C(=O)CCCCCCC/C=C\C/C=C\CCCCC)C1CCCCC1 (stereo not drawn) [A23I4R21C18-2]		6.07E+04	
CCCCCCCCCCCCCCCCCC(=O)N(CCC)C(C(=O)NCCN(C)CCNC(=O)C(C1CCCCC1)N(CCC)C(=O)CCCCCCCCCCCCCCCCC)C1CCCCC1 (stereo not drawn) [A23I4R21C18]		5.43E+03	
CCCCC/C=C\C/C=C\CCCCCCCC(=O)N(CCOC)C(C(=O)NCCN(C)CCNC(=O)C(C1CCCCC1)N(CCOC)C(=O)CCCCCCC/C=C\C/C=C\CCCCC)C1CCCCC1 (stereo not drawn) [A23I4R23C18-2]		1.04E+05	
CCCCCCCC/C=C\CCCCCCCC(=O)N(CCN(C)C)C(C(=O)NCCCCCCCCCCCCCCCCCC)C1CCCCC1 (stereo not drawn) [A23I18R1C18-1]	5.74E+06		
CCCCC/C=C\C/C=C\CCCCCCCC(=O)N(CCN(C)C)C(C(=O)NCCCCCCCCCCCCCCCCCC)C1CCCCC1 (stereo not drawn) [A23I18R1C18-2]	8.25E+06		
CC/C=C\C/C=C\C/C=C\CCCCCCCC(=O)N(CCN(C)C)C(C(=O)NCCCCCCCCCCCCCCCCCC)C1CCCCC1 (stereo not drawn) [A23I18R1C18-3]	4.14E+06		
CCCCCCCCCCCCCCCCCCNC(=O)C(C1CCCCC1)N(CCN(C)C)C(=O)CCCCCCCCCCCCCCCCC (stereo not drawn) [A23I18R1C18]	9.09E+04		
CCCCCCCCCCCCC#CC#CCCCCCCCCC(=O)N(CCN(C)C)C(C(=O)NCCCCCCCCCCCCCCCCCC)C1CCCCC1 (stereo not drawn) [A23I18R1C23]	6.11E+06		
CCCCCCCC/C=C\CCCCCCCC(=O)N(CCCN(C)C)C(C(=O)NCCCCCCCCCCCCCCCCCC)C1CCCCC1 (stereo not drawn) [A23I18R2C18-1]	1.29E+06		
CC/C=C\C/C=C\C/C=C\CCCCCCCC(=O)N(CCCN(C)C)C(C(=O)NCCCCCCCCCCCCCCCCCC)C1CCCCC1 (stereo not drawn) [A23I18R2C18-3]	9.49E+05		
CCCCCCCCCCCCC#CC#CCCCCCCCCC(=O)N(CCCN(C)C)C(C(=O)NCCCCCCCCCCCCCCCCCC)C1CCCCC1 (stereo not drawn) [A23I18R2C23]	2.37E+06		
CCCCCCCC/C=C\CCCCCCCC(=O)N(CCCN(CC)CC)C(C(=O)NCCCCCCCCCCCCCCCCCC)C1CCCCC1 (stereo not drawn) [A23I18R3C18-1]	1.26E+06		
CCCCC/C=C\C/C=C\CCCCCCCC(=O)N(CCCN(CC)CC)C(C(=O)NCCCCCCCCCCCCCCCCCC)C1CCCCC1 (stereo not drawn) [A23I18R3C18-2]	4.86E+06		
CC/C=C\C/C=C\C/C=C\CCCCCCCC(=O)N(CCCN(CC)CC)C(C(=O)NCCCCCCCCCCCCCCCCCC)C1CCCCC1 (stereo not drawn) [A23I18R3C18-3]	1.13E+06		
CCCCCCCCCCCCCCCCCCNC(=O)C(C1CCCCC1)N(CCCN(CC)CC)C(=O)CCCCCCCCCCCCCCCCC (stereo not drawn) [A23I18R3C18]	2.14E+03		
CCCCCCCCCCCCC#CC#CCCCCCCCCC(=O)N(CCCN(CC)CC)C(C(=O)NCCCCCCCCCCCCCCCCCC)C1CCCCC1 (stereo not drawn) [A23I18R3C23]	7.89E+05		
